Reference: US4990613A, “(1R,5S,6S)-2-[(6,7-dih ydro-5H-pyrazolo[1,2-a][1,2,4]triazolium-6-yl)]thio-6-[R-1-hydroxyethyl]- 1-methyl-carbapenem-3-carboxylate and intermediate therefor” (Lederle (Japan), Ltd., priority 1987, dated 1991)

Key:
[1] = parameters: species or system male mice of CrjCD(SD) type; conditions: mouse, in vivo, sc, 500 mg/kg
Method: Toxicological studies have been carried out using a group of 10 male mice of CrjCD(SD) type weighing from 20 to 23 grams. A solution containing the carbapenem compound (15) of the present invention obtained by Example 6 was administered subcutaneously to the mice and subjected to observations for one week.

[2] = test system: C. freundii resistant strains; assay: Sensitivity test against clinical isolates, C. freundii resistant strains; type: cell-based; conditions: CFIX/CTX resistant strains
Method: Cefixime (CFIX) (50 to >100 μg/ml)
Cefotaxime (CTX) (50 to >100 μg/ml)
The tests were carried out in the same manner as described above Test 1.

[3] = test system: P. aeruginosa resistant strains; assay: Sensitivity test against clinical isolates, P. aeruginosa resistant strains; type: cell-based; conditions: 54 resistant strains
Method: It is noted here that the 54 strains have been chosen because there have been the strains in duplicate with the agents. ______________________________________ Ceftazidime (CAZ) (25 to 100 μg/ml) 21 strains Cefsulodine (CFS) (25 to >100 μg/ml) 23 strains Piperacilin (PIPC) (25 to >100 μg/ml) 15 strains Gentamycin (GM) (25 to >100 μg/ml) 21 strains Amikacin (AMK) (25 to >100 μg/ml) 26 strains Ofloxacin (OFLX) (25 to >100 μg/ml) 4 strains ______________________________________
A minimum inhibitory concentration (MIC) was determined in substantially the same manner as the test procedures II above using the 54 strains of P. aeruginosa having an anti-Pseudomonas resistance.

[4] = test system: Swine Kidney Dehydropeptidase-I (DHP-I); assay: Hydrolysis activity against DHP-I enzyme substrate by late assay; type: in vitro ADME; conditions: final substrate concentration 100 μM, 10 minutes, pH 7.1
Method: The swine kidney (8 kg) was homogenized and an enzyme protein was allowed to precipitate. After a connective lipid was removed with acetone, the resultant material was made soluble by treatment with butanol and purified in the order by the ammonium sulfate fraction method, thereby producing DPH-I enzyme from a 75% ammonium sulfate fraction.
The DHP-I enzyme was then adjusted to give an enzyme concentration of 25 mg/10 ml (phosphate buffer, pH 7.1), and divided into 1 ml portions. The portions were frozen and stored at -40° C. or less until use.
As control compounds were employed glycyl dehydrophenylalanine (Gl-dh-Ph) and imipenem, and they were adjusted in situ each to give the concentration of 177 μM with the same sodium phosphate buffer solution.
To 1.2 ml of a 50 mM sodium phosphate buffer solution (substrate) containing 177 μM of each of Gh-dh-Ph and imipenem as the control compounds was added 0.2 ml of the DHP-I enzyme solution (25 mg/10 ml) prepared above in the final substrate concentration of 100 μM. The solution was then incubated at […] for 10 minutes. An initial velocity of hydrolysis of the substrate was measured from a decrease in absorbency at a particular λmax of each of the substrates.
A blank test was conducted in substantially the same manner as above by adding 0.2 ml of the sodium phosphate buffer solution (pH 7.1) to 1.2 ml of the above substrate.

[5] = physchem; conditions: amorphous solid storage
[6] = over a period of ten days
[7] = test system: Proteus mirabilis IFO3849; assay: Antibacterial test, agar plate dilution method; conditions: 37° C., 18 hours, MH agar
[8] = test system: Enterobacter cloacae 963; assay: Antibacterial test, agar plate dilution method; conditions: 37° C., 18 hours, MH agar
[9] = test system: Serratia marcescens IAM1184; assay: Antibacterial test, agar plate dilution method; conditions: 37° C., 18 hours, MH agar
[10] = test system: Micrococcus luteus ATCC9341; assay: Antibacterial test, agar plate dilution method; conditions: 37° C., 18 hours, MH agar
[11] = test system: Pseudomonas aeruginosa NCTC 10490; assay: Antibacterial test, agar plate dilution method; conditions: 37° C., 18 hours, MH agar
[12] = test system: Escherichia coli K12 C600; assay: Antibacterial test, agar plate dilution method; type: cell-based; conditions: 37° C., 18 hours, MH agar
[13] = test system: Proteus vulgaris OX-19; assay: Antibacterial test, agar plate dilution method; conditions: 37° C., 18 hours, MH agar
[14] = test system: Pseudomonas cepacia GN 11164; assay: Antibacterial activity against clinically isolated β-lactamase producing strains; type: cell-based; conditions: cephalosporinase producing strain, 18 to 20 hours
Method: (§1) A solution of a cephalosporinase producing strain stored by Episome Research Institute, which was prepared by incubating the strain in a sensitivity test broth (STB; product of Nissui K.K.) for 18 hours, was diluted with a fresh STB solution to contain 10^5 cells per milliliter and the diluted solution was then inoculated as spots with a microplanter on a sensitivity disk agar-N (SDA; product of Nissui K.K.) containing a test compound. The disk agar was then incubated for 18 to 20 hours. A minimum inhibitory concentration was determined as a minimum concentration in which the test microorganism had no longer grown after a 18 to 20 hour incubation.

[15] = test system: Serratia marcescens L-65; assay: as above; type: cell-based; conditions: cephalosporinase producing strain, 18 to 20 hours
Method: as §1

[16] = test system: Providencia rettgeri GN 4430; assay: as above; type: cell-based; conditions: cephalosporinase producing strain, 18 to 20 hours
Method: as §1

[17] = test system: Escherichia coli No. 96; assay: as above; type: cell-based; conditions: cephalosporinase producing strain, 18 to 20 hours
Method: as §1

[18] = test system: Pseudomonas aeruginosa GN 10367; assay: as above; type: cell-based; conditions: cephalosporinase producing strain, 18 to 20 hours
Method: as §1

[19] = test system: Serratia marcescens L-82; assay: as above; type: cell-based; conditions: cephalosporinase producing strain, 18 to 20 hours
Method: as §1

[20] = test system: Pseudomonas aeruginosa GN 918; assay: as above; type: cell-based; conditions: cephalosporinase producing strain, 18 to 20 hours
Method: as §1

[21] = test system: Escherichia coli No. 1501; assay: as above; type: cell-based; conditions: cephalosporinase producing strain, 18 to 20 hours
Method: as §1

[22] = test system: Proteus vulgaris GN 7919; assay: as above; type: cell-based; conditions: cephalosporinase producing strain, 18 to 20 hours
Method: as §1

[23] = test system: Enterobacter cloacae GN 7467; assay: as above; type: cell-based; conditions: cephalosporinase producing strain, 18 to 20 hours
Method: as §1

[24] = test system: Proteus morganii GN 5375; assay: as above; type: cell-based; conditions: cephalosporinase producing strain, 18 to 20 hours
Method: as §1

[25] = test system: Proteus vulgaris GN 4413; assay: as above; type: cell-based; conditions: cephalosporinase producing strain, 18 to 20 hours
Method: as §1

[26] = test system: Enterobacter cloacae GN 7471; assay: as above; type: cell-based; conditions: cephalosporinase producing strain, 18 to 20 hours
Method: as §1

[27] = test system: Enterobacter cloacae GN 5797; assay: as above; type: cell-based; conditions: cephalosporinase producing strain, 18 to 20 hours
Method: as §1

[28] = test system: Proteus morganii GN 5307; assay: as above; type: cell-based; conditions: cephalosporinase producing strain, 18 to 20 hours
Method: as §1

[29] = test system: Proteus morganii GN 5407; assay: as above; type: cell-based; conditions: cephalosporinase producing strain, 18 to 20 hours
Method: as §1

[30] = test system: Klebsiella oxytoca GN 10650; assay: as above; type: cell-based; conditions: cephalosporinase producing strain, 18 to 20 hours
Method: as §1

[31] = test system: Citrobactor freundii GN 7391; assay: as above; type: cell-based; conditions: cephalosporinase producing strain, 18 to 20 hours
Method: as §1

[32] = test system: Providencia rettgeri GN 5284; assay: as above; type: cell-based; conditions: cephalosporinase producing strain, 18 to 20 hours
Method: as §1

[33] = test system: Escherichia coli GN 5482; assay: as above; type: cell-based; conditions: cephalosporinase producing strain, 18 to 20 hours
Method: as §1

[34] = test system: Pseudomonas aeruginosa GN 10362; assay: as above; type: cell-based; conditions: cephalosporinase producing strain, 18 to 20 hours
Method: as §1

[35] = test system: Providencia rettgeri GN 4762; assay: as above; type: cell-based; conditions: cephalosporinase producing strain, 18 to 20 hours
Method: as §1

[36] = test system: Proteus vulgaris GN 76; assay: as above; type: cell-based; conditions: cephalosporinase producing strain, 18 to 20 hours
Method: as §1

[37] = test system: Serratia marcescens GN 10857; assay: as above; type: cell-based; conditions: cephalosporinase producing strain, 18 to 20 hours
Method: as §1

[38] = test system: Citrobactor freundii GN 346; assay: as above; type: cell-based; conditions: cephalosporinase producing strain, 18 to 20 hours
Method: as §1

[39] = test system: Salmonella enteritidis G14; assay: Antibacterial test, agar plate dilution method; conditions: 37° C., 18 hours, MH agar
[40] = test system: Pseudomonas aeruginosa IFO 3445; assay: Antibacterial test, agar plate dilution method; conditions: 37° C., 18 hours, MH agar
[41] = test system: Enterobacter aerougenes ATCC13048; assay: Antibacterial test, agar plate dilution method; conditions: 37° C., 18 hours, MH agar
[42] = test system: Salmonella typhi 901; assay: Antibacterial test, agar plate dilution method; type: cell-based; conditions: 37° C., 18 hours, MH agar
[43] = test system: Klebsiella pneumoniae PCI-602; assay: Antibacterial test, agar plate dilution method; conditions: 37° C., 18 hours, MH agar
[44] = test system: Bacillus subtilis ATCC6633; assay: Antibacterial test, agar plate dilution method; conditions: 37° C., 18 hours, MH agar
[45] = test system: Streptococcus pyogenes Cook; assay: Antibacterial test, agar plate dilution method; conditions: 37° C., 18 hours, MH agar
[46] = test system: Staphylococcus aureus MS352; assay: Antibacterial test, agar plate dilution method; conditions: 37° C., 18 hours, MH agar
[47] = test system: Proteus vulgaris HX-19; assay: Antibacterial test, agar plate dilution method; conditions: 37° C., 18 hours, MH agar
[48] = test system: Escherichia coli NIHJ JC-2; assay: Antibacterial test, agar plate dilution method; conditions: 37° C., 18 hours, MH agar
[49] = test system: Providencia rettgeri IFO 3850; assay: Antibacterial test, agar plate dilution method; conditions: 37° C., 18 hours, MH agar
[50] = test system: Salmonella paratyphi 1015; assay: Antibacterial test, agar plate dilution method; type: cell-based; conditions: 37° C., 18 hours, MH agar
[51] = test system: Staphylococcus aureus FDA 209P JC-1; assay: Antibacterial test, agar plate dilution method; conditions: 37° C., 18 hours, MH agar
[52] = test system: Staphylococcus aureus Terajima; assay: Antibacterial test, agar plate dilution method; conditions: 37° C., 18 hours, MH agar
[53] = test system: Salmonella schottmuelleri 8006; assay: Antibacterial test, agar plate dilution method; conditions: 37° C., 18 hours, MH agar
[54] = test system: Salmonella typhimurium IID971; assay: Antibacterial test, agar plate dilution method; conditions: 37° C., 18 hours, MH agar
[55] = test system: Morganella morganii IFO3848; assay: Antibacterial test, agar plate dilution method; conditions: 37° C., 18 hours, MH agar

## C[C@@H](O)[C@H]1C(=O)N2C(C(=O)[O-])=C(SC3Cn4cnc[n+]4C3)[C@H](C)[C@H]12 (stereo partly drawn) [Compound 15, 6-[(R)-1-hydroxyethy]-1-methyl-2-(5H-pyrazolo[1,2-a]triazolinium-6-yl) thio-carbapenem-3-carboxylic acid]
[1]
  survival and abnormal observations: alive without any abnormal observations
[2]; concentration of 0.78 μg/ml
  test microorganisms whose growth is inhibited: approximately 98%
[2]; concentration of 1.56 μg/ml
  test microorganisms whose growth is inhibited: all the test microorganisms
[3]; concentration of 12.5 μg/ml
  test microorganisms whose growth is inhibited: all the test microorganisms
[3]; concentration of […]
  test microorganisms whose growth is inhibited: approximately 98%

## NCC(=O)NC(=Cc1ccccc1)C(=O)O [Gl-dh-Ph, glycyl dehydrophenylalanine]
[4]
  initial velocity of hydrolysis against DHP-I: 17.4 µM/min

## C[C@@H](O)[C@H]1C(=O)N2C(C(=O)[O-])=C(SC3Cn4cnc[n+]4C3)[C@H](C)[C@H]12 (stereo partly drawn) [amorphous form]
[5]
  remaining at 240 h: ~40%

## C[C@@H](O)[C@H]1C(=O)N2C(C(=O)[O-])=C(SC3Cn4cnc[n+]4C3)[C@H](C)[C@H]12 (stereo partly drawn) [crystalline form]
[6]
  loss of potency on storage: no appreciable loss of potency

## (1R, 5S, 6S)-2-[4-pyrazolidinyl]thio-6-[(R)-1-hydroxyethyl]-1-methyl-carbapenem-3-carboxylic acid [Compound 14]
[7]
  MIC: 0.39 µg/mL
[8]
  MIC: 0.1 µg/mL
[9]
  MIC: 0.2 µg/mL
[10]
  MIC: 0.1 µg/mL
[11]
  MIC: 0.78 µg/mL
[12]
  MIC: 0.2 µg/mL
[13]
  MIC: 0.025 µg/mL
[14]
  MIC: 0.39 µg/mL
[15]
  MIC: 0.2 µg/mL
[16]
  MIC: 0.2 µg/mL
[17]
  MIC: 0.025 µg/mL
[18]
  MIC: 1.56 µg/mL
[19]
  MIC: 0.1 µg/mL
[20]
  MIC: 1.56 µg/mL
[21]
  MIC: 0.025 µg/mL
[22]
  MIC: 1.56 µg/mL
[23]
  MIC: 1.56 µg/mL
[24]
  MIC: 1.56 µg/mL
[25]
  MIC: 1.56 µg/mL
[26]
  MIC: 0.1 µg/mL
[27]
  MIC: 0.1 µg/mL
[28]
  MIC: 0.39 µg/mL
[29]
  MIC: 1.56 µg/mL
[30]
  MIC: 0.1 µg/mL
[31]
  MIC: 0.78 µg/mL
[32]
  MIC: 0.2 µg/mL
[33]
  MIC: 0.025 µg/mL
[34]
  MIC: 1.56 µg/mL
[35]
  MIC: 0.2 µg/mL
[36]
  MIC: 1.56 µg/mL
[37]
  MIC: 1.56 µg/mL
[38]
  MIC: 0.78 µg/mL
[39]
  MIC: 0.2 µg/mL
[40]
  MIC: 0.78 µg/mL
[41]
  MIC: 0.39 µg/mL
[42]
  MIC: 0.025 µg/mL
[43]
  MIC: 0.05 µg/mL
[44]
  MIC: 0.1 µg/mL
[45]
  MIC: 0.025 µg/mL
[46]
  MIC: 0.1 µg/mL
[47]
  MIC: 0.1 µg/mL
[48]
  MIC: 0.05 µg/mL
[49]
  MIC: 0.2 µg/mL
[50]
  MIC: 0.39 µg/mL
[51]
  MIC: 0.05 µg/mL
[52]
  MIC: 0.025 µg/mL
[53]
  MIC: 0.2 µg/mL
[54]
  MIC: 0.1 µg/mL
[55]
  MIC: 0.1 µg/mL
